Test results taken from article PMC8771711, “Synthesis of Lasalocid-Based Bioconjugates and Evaluation of Their Anticancer Activity” (ACS Omega, 2022).

How the values were obtained:
[1] = test system: HaCaT, human immortalized keratinocyte cell line; assay: MTT assay, cytotoxicity in HaCaT; assay type: cell-based; conditions: 72 h, mean ± SD, nontumor cells
Experimental: (§1) The human cell lines SW480 (primary colon cancer), SW620 (lymph node metastatic colon cancer from the same patient as primary cancer cells), PC3 (metastatic prostate cancer), and HaCaT (immortalized keratinocytes) were obtained from the American Type Culture Collection (ATCC, Rockville, USA). The SW480 and SW620 cells were grown in MEM (ThermoSci, USA), PC3 in RPMI 1640, and HaCaT in DMEM High Glucose (Biowest SAS, France) supplemented with 10% foetal bovine serum (FBS), HEPES (20 mM), and antibiotics (100 U mL^–1 of penicillin and 100 μg mL^–1 of streptomycin). The cells were incubated in a humidified incubator at 37 °C/5% CO2, until 80–90% confluence was reached.
(§2) The cell viability was assessed by using of MTT salt [3-(4,5-dimethylthiazol-2-yl)-2,5-diphenyltetrazolium bromide] converted by mitochondrial dehydrogenase, occurring in living cells. The cells were seeded in 96-well plates at a density of 1 × 10^4 cells per well and allowed to adhere for 24 h at 37 °C in a CO2 humidified incubator. Then, the medium was removed and a fresh medium with various concentrations of tested compounds (from 10 to 120 μM) was added. The untreated cells were used as the control.
(§3) After 72 h incubation, the medium was replaced with 200 μL per well of free serum medium containing 0.5 mg mL^–1 MTT and incubated for 4 h at 37 °C in a CO2 humidified incubator. Subsequently, the medium was removed and dimethyl sulfoxide with isopropanol (1:1) was added to dissolve the formazan crystals. The optical density was measured using a UVM 340 reader (ASYS Hitech GmbH, Austria) at a wavelength of 570 nm. The experiments were repeated three times. The cell viability was calculated as the percent of MTT reduced in treated cells versus control cells (untreated cells). The number of viable cells cultured without tested compounds was assumed as 100%. The decreased relative MTT level indicates decreased cell viability. The IC50 values were estimated using CompuSyn version 1.0.

[2] = test system: SW620, human metastatic colon cancer cell line; assay: MTT assay, cytotoxicity in SW620; assay type: cell-based; conditions: for IC50: MTT, 72 h, mean ± SD; for SW620 SI (selectivity index): SI = IC50 HaCaT / IC50 SW620
Experimental: as §1, §2, §3

[3] = test system: SW480, human primary colon cancer cell line; assay: MTT assay, cytotoxicity in SW480; assay type: cell-based; conditions: for IC50: MTT, 72 h, mean ± SD; for SW480 SI (selectivity index): SI = IC50 HaCaT / IC50 SW480
Experimental: as §1, §2, §3

[4] = test system: PC3, human prostate cancer cell line; assay: MTT assay, cytotoxicity in PC3; assay type: cell-based; conditions: for IC50: MTT, 72 h, mean ± SD; for PC3 SI (selectivity index): SI = IC50 HaCaT / IC50 PC3
Experimental: as §1, §2, §3

PC3 cells = assay: Annexin V-FITC/PI binding assay (flow cytometry) in PC3; assay type: cell-based, human; conditions: IC50 concentration, 72 h
Experimental: The SW480, SW620, PC3, and HaCaT cells were cultured and harvested under the conditions mentioned in the Section 4.5 and seeded in 12-well plates (1 × 10^5 cells per well). […] The apoptotic effect was performed using the Annexin V-FITC/propidium iodide (PI) apoptosis assay kit (Becton Dickinson, Pharmingen), according to the manufacturer’s instructions, and analyzed by flow cytometry (Becton Dickinson). The cells which were Annexin V-FITC-positive and PI-negative were identified as early apoptotic and both Annexin V-FITC- and PI-positive as late apoptotic or necrotic. The experiment was repeated three times.

[5] = test system: three cancer cell lines (SW480, SW620, PC3); assay: MTT assay, span over the three cancer cell lines; assay type: cell-based, human; conditions: for IC50: Homo sapiens, MTT, 72 h; for SI, span over three cancer cell lines: SI = IC50 HaCaT / IC50 cancer cell line
Experimental: as §1, §2, §3

Structure (SMILES) | IC50 ([1]; Homo sapiens, HaCaT) | IC50 ([2]; Homo sapiens, SW-620) | SW620 SI (selectivity index) [2] | IC50 ([3]; Homo sapiens, SW480) | SW480 SI (selectivity index) [3] | IC50 ([4]; Homo sapiens) | PC3 SI (selectivity index) [4] | percentage of late apoptotic PC3 cells (PC3 cells) | percentage of necrotic PC3 cells (PC3 cells) | IC50 [1] | IC50 [2] | IC50 [3] | IC50 [4] | IC50 [5] | SI, span over three cancer cell lines [5]
O=c1[nH]cc(F)c(=O)[nH]1 [5FU, 5-fluorouracil, reference compound] | 52 ± 1.6 µM | 39 ± 1.2 µM | 1.3 | 43 ± 3.1 µM | 1.2 | 11 ± 0.97 µM | 4.7 |  |  |  |  |  |  |  | 
C=C(C)[C@@H]1CC[C@]2(C(=O)O)CC[C@]3(C)[C@H](CC[C@@H]4[C@@]5(C)CC[C@H](O)C(C)(C)[C@@H]5CC[C@]43C)[C@@H]12 [BET, betulinic acid, reference compound] | 108 ± 1.3 µM | 65 ± 3.7 µM | 1.7 | 105 ± 7 µM | 1.0 | 71 ± 5.9 µM | 1.5 |  |  |  |  |  |  |  | 
O=c1[nH]c(=O)n(CCCCBr)cc1F [Compound 1] | 179 ± 4.3 µM | 75 ± 2.7 µM | 2.4 | 36 ± 0.79 µM | 5.0 | 308 ± 5.2 µM | 0.6 |  |  |  |  |  |  |  | 
O=c1[nH]c(=O)n(CCCCCCBr)cc1F [Compound 2, 1-(6-Bromohexyl)-5-fluorouracil] | 224 ± 2.8 µM | 36 ± 0.83 µM | 6.2 | 103 ± 3.4 µM | 2.2 | 3.1 ± 0.15 µM | 73 |  |  |  |  |  |  |  | 
O=c1[nH]c(=O)n(CCOCCBr)cc1F [Compound 3, 1-(2-(2-Bromoethoxy)ethyl)-5-fluorouracil] | 104 ± 2.2 µM | 47 ± 3.8 µM | 2.2 | 55 ± 3.5 µM | 1.9 | 42 ± 2.3 µM | 2.5 |  |  |  |  |  |  |  | 
O=c1cc(CCl)occ1O [Compound 4] | 39 ± 0.45 µM | 20 ± 2.6 µM | 2.0 | 28 ± 1.8 µM | 1.4 | 20 ± 1.5 µM | 2.0 |  |  |  |  |  |  |  | 
CC[C@@H](C(=O)[C@@H](C)[C@@H](O)[C@H](C)CCc1ccc(C)c(O)c1C(=O)OCCCCCCBr)[C@H]1O[C@](CC)([C@H]2CC[C@](O)(CC)[C@H](C)O2)C[C@@H]1C [Compound 5] | 50 ± 0.34 µM | 34 ± 1.4 µM | 1.5 | 42 ± 1.6 µM | 1.2 | 18 ± 0.98 µM | 2.8 |  |  |  |  |  |  |  | 
C=C(C)[C@@H]1CC[C@]2(C(=O)OCCCCCCOC(=O)c3c(CC[C@@H](C)[C@H](O)[C@H](C)C(=O)[C@H](CC)[C@H]4O[C@](CC)([C@H]5CC[C@](O)(CC)[C@H](C)O5)C[C@@H]4C)ccc(C)c3O)CC[C@]3(C)[C@H](CC[C@@H]4[C@@]5(C)CC[C@H](O)C(C)(C)[C@@H]5CC[C@]43C)[C@@H]12 [Compound 6, LAS–Betulinic Acid Conjugate] | 15 ± 0.59 µM | 40 ± 2.1 µM | 0.4 | 320 ± 8.8 µM | 0.05 | 200 ± 1.8 µM | 0.1 |  |  |  |  |  |  |  | 
CC[C@@H](C(=O)[C@@H](C)[C@@H](O)[C@H](C)CCc1ccc(C)c(O)c1C(=O)OCCCCn1cc(F)c(=O)[nH]c1=O)[C@H]1O[C@](CC)([C@H]2CC[C@](O)(CC)[C@H](C)O2)C[C@@H]1C [Compound 8, LAS–5-Fluorouracil Conjugate] | 33 ± 3.4 µM | 14 ± 1 µM | 2.4 | 67 ± 1.2 µM | 0.5 | 3.6 ± 0.08 µM | 9.2 | 33.16% | 34.88% |  |  |  |  |  | 
CC[C@@H](C(=O)[C@@H](C)[C@@H](O)[C@H](C)CCc1ccc(C)c(O)c1C(=O)OCCCCCCn1cc(F)c(=O)[nH]c1=O)[C@H]1O[C@](CC)([C@H]2CC[C@](O)(CC)[C@H](C)O2)C[C@@H]1C [Compound 9, LAS–5-Fluorouracil Conjugate] | 44 ± 1.8 µM | 55 ± 1.5 µM | 0.8 | 66 ± 2.5 µM | 0.7 | 36 ± 0.79 µM | 1.2 |  |  |  |  |  |  |  | 
CC[C@@H](C(=O)[C@@H](C)[C@@H](O)[C@H](C)CCc1ccc(C)c(O)c1C(=O)OCCOCCn1cc(F)c(=O)[nH]c1=O)[C@H]1O[C@](CC)([C@H]2CC[C@](O)(CC)[C@H](C)O2)C[C@@H]1C [Compound 10, LAS–5-Fluorouracil Conjugate] | 12 ± 0.59 µM | 11 ± 1.4 µM | 1.1 | 22 ± 2.2 µM | 0.5 | 12 ± 0.13 µM | 1.0 |  |  |  |  |  |  |  | 
CC[C@@H](C(=O)[C@@H](C)[C@@H](O)[C@H](C)CCc1ccc(C)c(O)c1C(=O)OC[C@H]1O[C@@H](n2cc(F)c(=O)[nH]c2=O)C[C@@H]1O)[C@H]1O[C@](CC)([C@H]2CC[C@](O)(CC)[C@H](C)O2)C[C@@H]1C [Compound 11, LAS–Floxuridine Conjugate] | 50 ± 0.59 µM | 19 ± 2 µM | 2.6 | 31 ± 1.2 µM | 1.6 | 13 ± 1.9 µM | 3.8 |  |  |  |  |  |  |  | 
COc1cccc2c1C(=O)c1c(O)c3c(c(O)c1C2=O)C[C@@](O)(C(=O)CO)C[C@@H]3O[C@H]1C[C@H](N)[C@H](O)[C@H](C)O1 [DOX, doxorubicin, reference compound] | 0.29 ± 0.1 µM |  |  | 0.75 ± 0.1 µM |  | 0.59 ± 0.02 µM |  |  |  |  |  |  |  |  | 
O=C(CCCCCBr)[c-]1cccc1.[Fe+2].c1cc[cH-]c1 [FER, (6-bromo-1-oxohexyl)ferrocene, reference compound] |  |  | 2.1 |  | 1.9 |  | 1.9 |  |  | 115 ± 0.95 µM | 55 ± 0.7 µM | 61 ± 0.98 µM | 59 ± 0.78 µM |  | 
O=c1[nH]c(=O)n([C@H]2C[C@H](O)[C@@H](CO)O2)cc1F [FLO, floxuridine, reference compound] | 38 ± 0.72 µM | 8.8 ± 0.69 µM | 4.3 | 16 ± 1.2 µM | 2.4 | 14 ± 0.57 µM | 2.7 |  |  |  |  |  |  |  | 
Nc1ccn([C@@H]2O[C@H](CO)[C@@H](O)C2(F)F)c(=O)n1 [GEM, gemcitabine, reference compound] | 1.5 ± 0.05 µM | 3.4 ± 0.65 µM | 0.4 | 1.2 ± 0.05 µM | 1.3 | 0.14 ± 0.02 µM | 11 |  |  |  |  |  |  | 0.14 to 3.4 µM | 0.4–11
O=c1cc(CO)occ1O [KOJ, kojic acid, reference compound] | 225 ± 7.1 µM | 94 ± 4 µM | 2.4 | 119 ± 2.8 µM | 1.9 | 56 ± 3.3 µM | 4.0 |  |  |  |  |  |  |  | 
CC[C@@H](C(=O)[C@@H](C)[C@@H](O)[C@H](C)CCc1ccc(C)c(O)c1C(=O)O)[C@H]1O[C@](CC)([C@H]2CC[C@](O)(CC)[C@H](C)O2)C[C@@H]1C [LAS, lasalocid] | 16 ± 1.9 µM | 6.1 ± 0.28 µM | 2.6 | 7.2 ± 0.79 µM | 2.2 | 1.4 ± 0.05 µM | 11 |  |  |  |  |  |  | 1.4 to 7.2 µM | 2.2–11
BrCCC[P+](c1ccccc1)(c1ccccc1)c1ccccc1.[Br-] [TPP, (3-bromopropyl)triphenylphosphonium bromide, reference compound] | 26 ± 0.96 µM | 39 ± 2.5 µM | 0.7 | 46 ± 1.1 µM | 0.6 | 31 ± 0.98 µM | 0.8 |  |  |  |  |  |  |  | 
